Read-outs that look alike come from different tables or passages of the source.
Experiments:
[1] = target: T1, HCV NS3 protease domain (Hepatitis C virus genotype 1b, UniProt Q9WMX2); assay: biochemical; conditions: apparent Ki class
T1 construct: The first 181 amino acids of NS3 (residues 1027-1207 of the viral polyprotein); hexa-histidine (C); made in house; host or cells: E. coli BL21/DE3 pLysS

[2] = target: T2, full-length hepatitis C viral protein NS3•4A (Hepatitis C virus genotype 1a, UniProt P27958); assay: biochemical; set-up: species or system HCV sub-type strain 1a; conditions: apparent Ki class
T2 construct: hexa-histidine (N); made in house; host or cells: Sf9 insect cells (baculovirus, pVL1392)

[3] = Enzyme Assay 1 (HCV NS3 Protease Domain Peptide Cleavage Assay) activity
[4] = Enzyme Assay 2 (HCV NS3 Peptide Cleavage Assay) activity

| Structure (SMILES) | Ki [1, 3] [nM] | Ki [2, 4] [nM] | Ki ([1]; read-out: Enzyme Assay 1 (HCV NS3 Protease Domain Peptide Cleavage Assay) activity) [nM] | Ki ([2]; read-out: Enzyme Assay 2 (HCV NS3 Peptide Cleavage Assay) activity) [nM] |
| --- | --- | --- | --- | --- |
| CCC[C@H](NC(=O)[C@@H]1C[C@@]2(CC(c3cc(C)c(OC)c(Cl)c3)=NO2)CN1C(=O)[C@@H](NC(=O)CC1CCCCC1)C(C)(C)C)C(=O)C(=O)NC1CC1 [Compound 111] | 100 to 500 | 100 to 500 | – | – |
| CCC[C@H](NC(=O)[C@@H]1C[C@]2(CC(c3cccc(Cl)c3)=NO2)CN1C(=O)C(NS(=O)(=O)c1ccc(F)cc1)c1ccccc1)C(=O)C(=O)NC1CC1 (stereo partly shown) [Compound 466] | > 500 | > 500 | – | – |
| CCC[C@H](NC(=O)[C@@H]1C[C@]2(CC(c3cccc(Cl)c3)=NO2)CN1C(=O)[C@@H](NC(=O)CC1CCCCC1)C(C)(C)C)C(=O)C(=O)N(C)C [Compound 253] | > 500 | > 500 | – | – |
| CCC[C@H](NC(=O)[C@@H]1C[C@]2(CC(c3cccc(Cl)c3)=NO2)CN1C(=O)[C@H](CSC(C)(C)C)NC(=O)CC1CCCCC1)C(=O)C(=O)NC1CC1 [Compound 437] | > 500 | > 500 | – | – |
| C=C[C@@H]1C[C@]1(NC(=O)[C@@H]1C[C@]2(CC(c3cccc(Cl)c3)=NO2)CN1C(=O)[C@@H](NC(=O)CC1CCCCC1)C(C)(C)C)C(=O)NS(=O)(=O)NC1CC1 [Compound 115] | > 500 | 100 to 500 | – | – |
| CCC[C@H](NC(=O)[C@@H]1C[C@]2(CC(c3cccc(Cl)c3)=NO2)CN1C(=O)[C@@H](NC(=O)CC1CCC2(CC1)OCCO2)C(C)(C)C)C(=O)C(=O)NC1CC1 [Compound 445] | 100 to 500 | < 100 | – | – |
| CCC[C@H](NC(=O)[C@@H]1C[C@]2(CC(c3cccc(Cl)c3)=NO2)CN1C(=O)[C@@H](NC(=O)CC1CCCCC1)C(C)(C)C)C(=O)C(=O)NC(c1ccccc1)c1ccccn1 (stereo partly shown) [Compound 120] | > 500 | > 500 | – | – |
| CCC[C@H](NC(=O)[C@@H]1C[C@]2(CC(c3cccc(Cl)c3)=NO2)CN1C(=O)[C@H](CC(C)C)NS(=O)(=O)c1ccc(OC)cc1)C(=O)C(=O)NC1CC1 [Compound 587] | > 500 | 100 to 500 | – | – |
| CCC[C@H](NC(=O)[C@@H]1C[C@]2(CC(c3cccc(Cl)c3)=NO2)CN1C(=O)[C@@H](NC(=O)CC1CCCCC1)C(C)(C)C)C(=O)C(=O)NC1Cc2ccccc2C1 [Compound 6] | > 500 | > 500 | – | – |
| C=C[C@@H]1C[C@]1(NC(=O)[C@@H]1C[C@]2(CC(c3cccc(Cl)c3)=NO2)CN1C(=O)[C@@H](NC(=O)O[C@H]1CCOC1)C(C)(C)C)C(=O)O [Compound 269] | > 500 | > 500 | – | – |
| CCC[C@H](NC(=O)[C@@H]1C[C@]2(CC(c3cccc(Cl)c3)=NO2)CN1C(=O)[C@@H](NC(=O)CC1CCCCC1)C(C)(C)C)C(=O)C(=O)NCc1nc2ccccc2s1 [Compound 17] | > 500 | 100 to 500 | – | – |
| CCC[C@H](NC(=O)[C@@H]1C[C@]2(CC(c3cccc(Cl)c3)=NO2)CN1C(=O)[C@@H](NC(=O)CC1CCC(C)(O)CC1)C(C)(C)C)C(=O)C(=O)NC1CC1 (stereo partly shown) [Compound 575] | – | – | < 100 | < 100 |
| CCC[C@H](NC(=O)[C@@H]1C[C@]2(CC(c3cccc(Cl)c3)=NO2)CN1C(=O)[C@@H](NC(=O)CC1CCCCC1)C(C)(C)C)C(=O)C(=O)NC1(c2ccccc2)CC1 [Compound 429] | > 500 | > 500 | – | – |
| CCC[C@H](NC(=O)[C@@H]1C[C@]2(CC(c3cc(Cl)c4c(c3)OCCN4C)=NO2)CN1C(=O)[C@@H](NC(=O)CC1CCCCC1)C(C)(C)C)C(=O)C(=O)NC1CC1 [Compound 315] | < 100 | < 100 | – | – |
| CCC[C@H](NC(=O)[C@@H]1CC2(CC(c3cccc(Cl)c3)=NO2)CN1C(=O)[C@H](Cc1ccc(OC)cc1)NC(C)=O)C(=O)C(=O)NC1CC1 (stereo partly shown) [Compound 88] | > 500 | 100 to 500 | – | – |
| CC(C)(C)[C@H](NC(=O)CC1CC2CCC1C2)C(=O)N1C[C@@]2(CC(c3cccc(Cl)c3)=NO2)C[C@H]1C(=O)N[C@@H](CC1CC1)C(=O)C(N)=O (stereo partly shown) [Compound 13] | < 100 | < 100 | – | – |
| CCC[C@H](NC(=O)[C@@H]1C[C@]2(CC(c3cccc(Cl)c3)=NO2)CN1C(=O)[C@@H](NC(=O)CC1CCCCC1)C(C)(C)C)C(=O)C(=O)NC[C@H]1CCCO1 [Compound 277] | > 500 | 100 to 500 | – | – |
| CCC[C@H](NC(=O)[C@@H]1C[C@]2(CC(c3cccc(Cl)c3)=NO2)CN1C(=O)[C@@H](NC(=O)CC1CCCCC1)C(C)(C)C)C(=O)C(=O)NCCc1cccnc1 [Compound 447] | > 500 | 100 to 500 | – | – |
| CCC[C@H](NC(=O)[C@@H]1C[C@]2(CC(c3cccc(Cl)c3)=NO2)CN1C(=O)[C@@H](NC(=O)CC1CCCCC1)C(C)(C)C)C(=O)C(=O)NCc1ccco1 [Compound 441] | > 500 | 100 to 500 | – | – |
| CCC[C@H](NC(=O)[C@@H]1C[C@]2(CC(c3cccc(Cl)c3)=NO2)CN1C(=O)[C@@H](NC(=O)CC1CCCCC1)C(C)(C)C)C(=O)C(=O)NCCOC [Compound 404] | > 500 | 100 to 500 | – | – |
| CCC[C@H](NC(=O)[C@@H]1C[C@]2(CC(c3cccnc3OC)=NO2)CN1C(=O)[C@@H](NC(=O)CC1CCCCC1)C(C)(C)C)C(=O)C(=O)NC1CC1 [Compound 469] | > 500 | 100 to 500 | – | – |

| Structure (SMILES) | Ki [1, 3] [nM] | Ki [2, 4] [nM] | Ki ([1]; read-out: Enzyme Assay 1 (HCV NS3 Protease Domain Peptide Cleavage Assay) activity) [nM] | Ki ([2]; read-out: Enzyme Assay 2 (HCV NS3 Peptide Cleavage Assay) activity) [nM] |
| --- | --- | --- | --- | --- |
| CCC[C@H](NC(=O)[C@@H]1C[C@]2(CC(c3cccc(Cl)c3)=NO2)CN1C(=O)[C@@H](NC(=O)CC1CCCCC1)C(C)(C)C)C(=O)C(=O)N1CCC[C@@H]1COC [Compound 347] | > 500 | > 500 | – | – |
| CCC[C@H](NC(=O)[C@@H]1C[C@]2(CC(C(=O)c3ccccc3)=NO2)CN1C(=O)[C@@H](NC(=O)NC(C)(C)C)C(C)(C)C)C(=O)C(=O)NC1CC1 [Compound 119] | 100 to 500 | 100 to 500 | – | – |
| CCC[C@H](NC(=O)[C@@H]1C[C@]2(CC(c3cccc(Cl)c3)=NO2)CN1C(=O)[C@@H](NC(=O)CC1CCCCC1)C(C)(C)C)C(=O)C(=O)N[C@@H](C)C(O)(c1ccccc1)c1ccccc1 [Compound 507] | > 500 | > 500 | – | – |
| CCC[C@H](NC(=O)[C@@H]1C[C@]2(CC(c3cccc(Cl)c3)=NO2)CN1C(=O)[C@@H](NC(=O)CC1CCCCC1)C(C)(C)C)C(=O)C(=O)N[C@@H](C)c1cccc(OC)c1 [Compound 255] | 100 to 500 | 100 to 500 | – | – |
| CCC[C@H](NC(=O)[C@@H]1C[C@]2(CC(c3cc(C)c(OC)c(C)c3)=NO2)CN1C(=O)[C@@H](NC(=O)CC1CCCCC1)C(C)(C)C)C(=O)C(=O)NC1CC1 [Compound 362] | 100 to 500 | < 100 | – | – |
| C=C[C@@H]1C[C@]1(NC(=O)[C@@H]1C[C@]2(CC(c3cccc(Cl)c3)=NO2)CN1C(=O)[C@@H](NC(=O)OC(C)(C)C)C(C)(C)C)C(=O)O [Compound 439] | > 500 | > 500 | – | – |
| CCC[C@H](NC(=O)[C@@H]1C[C@]2(CC(c3cccc(Cl)c3)=NO2)CN1C(=O)[C@@H](NC(=O)CC1CCCCC1)C(C)(C)C)C(=O)C(=O)N1CCCCC1 [Compound 568] | > 500 | > 500 | – | – |
| CCC[C@H](NC(=O)[C@@H]1C[C@]2(CC(c3cccc(Cl)c3)=NO2)CN1C(=O)C(NC(=O)CC1C[C@@H](C)O[C@H](C)C1)C(C)(C)C)C(=O)C(=O)NC1CC1 (stereo partly shown) [Compound 153] | 100 to 500 | 100 to 500 | – | – |
| CCC[C@H](NC(=O)[C@@H]1C[C@]2(CC(c3cccc(Cl)c3)=NO2)CN1C(=O)[C@@H](NC(=O)CC1CCCCC1)C(C)(C)C)C(=O)C(=O)N1CC(F)(F)C1 [Compound 521] | 100 to 500 | < 100 | – | – |
| CCC[C@H](NC(=O)[C@@H]1C[C@]2(CC(c3cccc(Cl)c3)=NO2)CN1C(=O)[C@@H](NC(=O)CC1CCCCC1)C(C)(C)C)C(=O)C(=O)NC1CCCCC1 [Compound 99] | > 500 | > 500 | – | – |
| CCC[C@H](NC(=O)[C@@H]1C[C@]2(CC(c3cccc(Cl)c3)=NO2)CN1C(=O)[C@@H](NC(=O)CC1CCCCC1)C(C)(C)C)C(=O)C(=O)N1CCOCC1 [Compound 410] | > 500 | > 500 | – | – |
| C=C[C@@H]1C[C@]1(NC(=O)[C@@H]1C[C@]2(CC(c3cccc(Cl)c3)=NO2)CN1C(=O)[C@@H](NC(=O)CC1CCOCC1)C(C)(C)C)C(=O)O [Compound 384] | > 500 | > 500 | – | – |
| CC(C)(C)[C@H](NC(=O)CC1CCOCC1)C(=O)N1C[C@@]2(CC(c3cccc(Cl)c3)=NO2)C[C@H]1C(=O)NC(CC1CCC1)C(=O)C(=O)NC1CC1 (stereo partly shown) [Compound 87] | 100 to 500 | 100 to 500 | – | – |
| CC(C)(C)[C@H](NC(=O)CC1CCCCC1)C(=O)N1C[C@@]2(CC(c3cc(Cl)c4c(c3)CCO4)=NO2)C[C@H]1C(=O)NC(CC1CCC1)C(=O)C(=O)NC1CC1 (stereo partly shown) [Compound 18] | < 100 | < 100 | – | – |
| CCC[C@H](NC(=O)[C@@H]1C[C@]2(CC(c3cccc(Cl)c3)=NO2)CN1C(=O)[C@@H](NC(=O)CC1CCCCC1)C(C)(C)C)C(=O)C(=O)NCC(C)C [Compound 143] | 100 to 500 | 100 to 500 | – | – |
| CCC[C@H](NC(=O)[C@@H]1C[C@]2(CC(c3cccc(Cl)c3)=NO2)CN1C(=O)[C@@H](NC(=O)CC1(O)CCCCC1)C(C)(C)C)C(=O)C(=O)NC1CC1 [Compound 233] | 100 to 500 | < 100 | – | – |
| CCC[C@H](NC(=O)[C@@H]1C[C@]2(CC(c3cccc4cccnc34)=NO2)CN1C(=O)[C@@H](NC(=O)CC1CCCCC1)C(C)(C)C)C(=O)C(=O)NC1CC1 [Compound 42] | 100 to 500 | < 100 | – | – |
| CCC[C@H](NC(=O)[C@@H]1C[C@]2(CC(c3cccc(Cl)c3)=NO2)CN1C(=O)[C@@H](NC(=O)CC1CCCCC1)C(C)(C)C)C(=O)C(=O)N(C)CC [Compound 182] | > 500 | > 500 | – | – |
| CCC[C@H](NC(=O)[C@@H]1C[C@]2(CC(c3cc(F)c(OCC)c(Cl)c3)=NO2)CN1C(=O)[C@@H](NC(=O)CC1CCOCC1)C(C)(C)C)C(=O)C(=O)NC1CC1 [Compound 411] | 100 to 500 | < 100 | – | – |
| CCOc1c(F)cc(C2=NO[C@]3(C2)C[C@@H](C(=O)N[C@@H](CC2CC2)C(=O)C(N)=O)N(C(=O)[C@@H](NC(=O)CC2CCOCC2)C(C)(C)C)C3)cc1Cl [Compound 67] | < 100 | < 100 | – | – |
